Here are results for 24 molecules from US4943570A, “Benzimidazolesulfonamides and imidazopyridinesulfonamides, and their application as drugs” (Laboratorios Del Dr. Esteve, S.A., priority 1986, dated 1990).

Structures are written as SMILES. Where only a bound is given, the exact number is not on record here.

Series [1] is described as follows: Acute toxicity in mice (Litchfield and Wilcoxon). In kind it is in vivo. The conditions noted are these: mouse, in vivo, po, administered orally. As to the method: Method of Litchfield and Wilcoxon (J. T. Litchfield and E. J. Wilcoxon: J. Pharmacol. Exp. Therap., 96, 19-113 (1949)).
The product is administered orally as a suspension in gum arabic at a concentration of 5% in double-distilled water. The volume administered is 10 - ml/kg. The 50% lethal dose (LD50) is calculated by the method cited.

The test system of another series is gastric acid secretion. Put plainly: Inhibition of gastric acid secretion in Shay rats (Shay's method, pylorus ligation). The conditions noted are these: Rattus norvegicus, administered intraduodenally; for ED50: 2 h; for inhibition in vivo at 40 mg/kg: intraduodenal, 2 h after pylorus ligation, read-out: Percentage inhibition of gastric acid secretion. In kind it is in vivo, Male Wistar rats. The source says:
Shay's method [H. Shay; S. A. Komarov; S. S. Fels; D. Merange: M. Grvenstein; H. Siplet: Gastroenterology, 5, 43 (1945)--F. E. Visscber; P. H. Seay: A. P. Taxelaar; W. Veldkamp; M. J. Vander Brook: J. Pharmac. Exp. Ther., 110, 188 (1954)--"Animal Experiments in Pharmacological Analysis", F. R. Domer: C. C. Thomas, published by Springfield, Ill., U.S.A., 1970, p. 140].
Male Wistar rats weighing 200 to 250 grams are used in this test; they are fasted from the day preceding the day of the test, with free access to water. Groups containing a minimum of 4 animals each are used.
The rats are anesthetized with ethyl ether, a laparotomy is performed on them and their pylorus is ligated; the abdominal incision is then sewn up. The administration of the products, with the vehicle for the control group, is effected intraduodenally (i.d.) before the abdominal incision is sewn up. The dose administered in the first test is 40 mg/kg and the 50% effective dose (ED50), administered intraduodenally, is also determined in a second test. The vehicle used is gum arabic at a concentration of 5% w/v in double-distilled water.
Two hours after ligation of the pylorus, the rats are sacrificed by prolonged anesthesia with ethyl ether and the volume of gastric juice is measured; the total acidity is determined by means of a pH meter equipped with an automatic burette. For each product and each dose tested, the percentage inhibition of gastric acid secretion is determined relative to the control group.

Series [2] has as its system gastric lesions induced by stress due to immobilization and cold. Kind of series: Ulcer-inhibiting activity: inhibition of gastric lesions induced by stress due to immobilization and cold. In kind it is in vivo, Male Wistar rats. The conditions noted are these: 40 mg/kg oral. The method, then: Male Wistar rats weighing […] to 200 grams are used in this test; they are fasted in individual cages for 24 hours before the study begins, but with water "ad libitum". Groups containing a minimum of 5 animals each are used.
At the start of the study, the rats receive the products described, or alternatively the vehicle in the case of the control group, by oral administration using a stomach tube. The administered dose of the products described is 40 mg/kg. The vehicle used is gum arabic at a concentration of 5% w/v in double-distilled water.
Immediately after the treatment, the rats are introduced into confined enclosures in the form of a plastic tube with a diameter of about 5 cm and a variable length which can be adapted to the size of the rat. One hour after the treatment, the rats, in their enclosures, are placed in a refrigerator at -5° C. for 3 hours. Immediately after exposure to the cold, the rats are killed by prolonged anesthesia with ethyl ether, the stomachs are extracted and opened along the greater curvature and the lesions in the stomach mucosa are evaluated. For this evaluation, the hemorrhage points are counted and the size of the necrotic ulcers is measured.
For each product and each dose tested, the percentage inhibition of gastric lesions is determined relative to the control group.

With `O=S(=O)(NCCN1CCOCC1)c1nc2ccccc2[nH]1` [Example 6], the LD50 came out at 2600 mg/kg in series [1] (female) and 3300 mg/kg in series [1] (male).
With `O=S(=O)(NCCCN1CCOCC1)c1nc2ccccc2[nH]1` [Example 8, N-[3-(4-Morpholinopropyl)]-1H-benzimidazole-2-sulfonamide], the LD50 in series [1] (female) and in series [1] (male) was 6400 mg/kg throughout.
With `O=S(=O)(Nc1ccc(Cl)cc1)c1nc2cc(Cl)ccc2[nH]1` [Example 16, 5-Chloro-N-(4-chlorophenyl)-1H-benzimidazoIe-2-sulfonamide], the LD50 in series [1] (female) amounted to 1500 mg/kg; in series [1] (male), 2000 mg/kg. The same molecule had a median effective dose (ED50) in the series on gastric acid secretion of 42.6 mg/kg. Further, in the series on gastric acid secretion, the inhibition in vivo at 40 mg/kg amounted to 48%.
On the same counts, the results for `CCN(CC)CCCC(C)NS(=O)(=O)c1nc2cc(Cl)ccc2[nH]1` (centres unmarked) [Example 18, 5-Chloro-N-(4-diethylamino-1-methylbutyl)-1H-benzimidazole-2-sulfonamide] are 4000 mg/kg, 2000 mg/kg, 53.5 mg/kg and 41%.
Turning to `CCNS(=O)(=O)c1nc2c([N+](=O)[O-])cccc2[nH]1` [Example 21, N-Ethyl-4-nitro-1H-benzimidazole-2-sulfonamide], the 50% lethal dose (LD50) in series [1] (female) and in series [1] (male) was over 1600 mg/kg throughout.
For `O=S(=O)(NCc1ccccn1)c1nc2ccccc2[nH]1` [Example 31, N-(2-Pyridylmethyl)-1H-benzimidazole-2-sulfonamide], the median lethal dose (LD50) in series [1] (female) and in series [1] (male) was over 6400 mg/kg throughout.
Molecule `NS(=O)(=O)c1nc2cc([N+](=O)[O-])ccc2[nH]1` [Example 34, 5-Nitro-1H-benzimidazole-2-sulfonamide] had an LD50 in series [1] (female) of over 6400 mg/kg. Also, in series [1] (male), the LD50 is over 6400 mg/kg. Further, in the series on gastric acid secretion, it took a dose of 29.9 mg/kg to reach the 50% effect level (ED50) and the inhibition in vivo at 40 mg/kg turned out to be 63%.
Turning to `O=[N+]([O-])c1ccc2[nH]c(S(=O)(=O)NCCCN3CCOCC3)nc2c1` [Example 38, N-[3-(4-Morpholinopropyl)]-5-nitro-1H-benzimidazole-2-sulfonamide], the LD50 in series [1] (female) and in series [1] (male) was over 6400 mg/kg each time.
For `CCN(CC)S(=O)(=O)c1nc2ccc([N+](=O)[O-])cc2n1CC` [Example 71, 6-nitro-1,N,N-triethyl-1H-benzimidazole-2-sulfonamide], the median lethal dose (LD50) in series [1] (female) and in series [1] (male) was 6400 mg/kg in each case.
`O=S1(=O)c2nc3ccccc3n2CCN1CCCN1CCOCC1` [Example 92]: the median lethal dose (LD50) in series [1] (female) and in series [1] (male) was 6400 mg/kg each time.
For the molecule `COc1ccc(CCN2CCn3c(nc4ccccc43)S2(=O)=O)cc1OC` [Example 99, 3,4-Dihydro-2H-2-[2-(3,4-dimethoxyphenylethyl)]-[1,2,5]-thiadiazino[5,6-a]benzimidazole 1,1-dioxide], the 50% lethal dose (LD50) in series [1] (female) and in series [1] (male) was over 3200 mg/kg throughout.
With `CCN1CCn2c(nc3ccc([N+](=O)[O-])cc32)S1(=O)=O` [Example 127, 3,4-Dihydro-2H-2-ethyl-7-nitro-[1,2,5]-thiadiazino-[5,6-a]benzimidazole 1,1-dioxide], the LD50 in series [1] (female) and in series [1] (male) was over 6400 mg/kg throughout. Besides, the 50% effective dose (ED50) in the series with gastric acid secretion is 52.4 mg/kg. The inhibition in vivo at 40 mg/kg with gastric acid secretion came out at 56.3%.
With `CCN1CCn2c(nc3cc([N+](=O)[O-])ccc32)S1(=O)=O` [Example 128, 3,4-Dihydro-2H-2-ethyl-8-nitro-[1,2,5]-thiadiazino-[5,6-a]benzimidazole 1,1-dioxide], the figures for the LD50 in series [1] (female) and in series [1] (male) were over 3200 mg/kg and over 2200 mg/kg, respectively.
As for `CCCCN1CCn2c(nc3cc([N+](=O)[O-])ccc32)S1(=O)=O` [Example 133, 2H-2-Butyl-3,4-dihydro-8-nitro-[1,2,5]-thiadiazino-[5,6-a]benzimidazole 1,1-dioxide], the median lethal dose (LD50) in series [1] (female) and in series [1] (male) was over 3200 mg/kg throughout. For the same molecule, in the series with gastric acid secretion, the ED50 was 58.3 mg/kg. Besides, the inhibition in vivo at 40 mg/kg in the series on gastric acid secretion is 40%.
In the case of `CCCCN1CCn2c(nc3ccc([N+](=O)[O-])cc32)S1(=O)=O` [Example 134, 2H-2-butyl-3,4-dihydro-7-nitro-[1,2,5]-thiadiazino[5,6-a]benzimidazole 1,1-dioxide], the LD50 in series [1] (female) was over 3200 mg/kg. In series [1] (male), this molecule returned a median lethal dose (LD50) of over 3200 mg/kg. Besides, in the series with gastric acid secretion, it took a dose of 20.7 mg/kg to reach the 50% effect level (ED50) and the inhibition in vivo at 40 mg/kg came to 70.3%.
`CCN(CC)CCCC(C)N1CCn2c(nc3ccc([N+](=O)[O-])cc32)S1(=O)=O` (centres unmarked) [Example 144, 2H-2-(4-Diethylamino-1-methylbutyl)-3,4-dihydro-7-nitro-[1,2,5,]-thiadiazino[5,6-a]benzimidazole 1,1-dioxide]: in the series with gastric acid secretion, it took a dose of 10 mg/kg to reach the 50% effect level (ED50) and the inhibition in vivo at 40 mg/kg turned out to be 93.7%. The “Inhibition of gastric lesions” value in series [2] (relative to control (gum arabic)) worked out at 100%. Also, the “Evaluation of the lesions (x ± standard deviation)” value in series [2] (stress (immobilization and cold), 10 rats) was 0.
For `CCN1CCn2c(nc3ccc(N)cc32)S1(=O)=O` [Example 149, 7-amino-3,4-dihydro-2H-2-ethyl-[1,2,5]-thiadiazino[5,6-a]benzimidazole 1,1 dioxide], in the series on gastric acid secretion, the median effective dose (ED50) worked out at 32.6 mg/kg and the inhibition in vivo at 40 mg/kg was found to be 64%.
On the same counts, the results for `CCN1CCn2c(nc3ccc(NC(C)=O)cc32)S1(=O)=O` [Example 150, 7-acetylamino-3,4-dihydro-2H-2-ethyl-[1,2,5]-thiadiazino[5,6-a]benzimidazole 1,1-dioxide] are 41.6 mg/kg and 53.4%.
In the same order, the values of `CCN1C(C)Cn2c(nc3ccccc32)S1(=O)=O` (centres unmarked) [Example 170, 3,4-Dihydro-2H-2-ethyl-3-methyl-[1,2,5]-thiadiazino[5,6-a]benzimidazole 1,1-dioxide] are 21.8 mg/kg and 73.2%.
On the same counts, the results for `CCCCN1CCn2c(nc3cccnc32)S1(=O)=O` [Example 173, 2H-2-Butyl-3,4-Dihydropyrido[3', 2':4,5]imidazo[1,2-e]-[1,2,5]-thiadiazine 1,1-dioxide] are 39.2 mg/kg and 57.1%.
With `CCN1C(c2ccccc2)=Cn2c(nc3ccccc32)S1(=O)=O` [Example 177, 2H-2-ethyl-3-phenyl-[1,2,5]-thiadiazino[5,6-a]benzimidazole 1,1-dioxide], in the series with gastric acid secretion, the 50% effect level (ED50) was put at a dose of 38.1 mg/kg and the inhibition in vivo at 40 mg/kg stood at 53.7%.
On the same counts, the results for `O=S1(=O)c2nc3ccccc3n2CC2CCCCN21` (centres unmarked) [Example 180, 1,2,3,4,13,14-hexahydropyrido-[1',2':2,3]-[1,2,5]-thiadiazino[5,6-a]-benzimidazole 6,6-dioxide] are 43.7 mg/kg and 43.8%.
In the same order, the values of `O=[N+]([O-])c1ccc2c(c1)nc1n2CC2CCCCN2S1(=O)=O` (centres unmarked) [Example 181, 1,2,3,4,13,14-Hexahydro-9-nitropyrido[1',2':2,3]-[1,2,5-thiadiazino5,6-a]benzimidazole 6,6-dioxide] are 62 mg/kg and 43.4%.
As to `O=[N+]([O-])c1ccc2nc3n(c2c1)CC1CCCCN1S3(=O)=O` (centres unmarked) [Example 182, 1,2,3,4,13,14-Hexahydro-10-nitropyrido[1',2':2,3]-[1,2,5]-thiadiazino[5,6-a]benzimidazole 6,6-dioxide], in the series with gastric acid secretion, it took a dose of 61.2 mg/kg to reach the 50% effect level (ED50) and the inhibition in vivo at 40 mg/kg amounted to 42.1%.

In general, LD50 refers to the dose expected to kill half of the subjects tested. For orientation: ED50 means the midpoint of the dose-response relation. A lower ED50 goes with greater potency.
